Experimental data as given in the supplement of paper PMC6045584.
± gives the standard deviation of the averaged measurements.

Experiments:
[1] = compound: CN1CCN(c2nc(C3=C(c4c[nH]c5ccccc45)C(=O)NC3=O)c3ccccc3n2)CC1 [SOTRASTAURIN/AEB071]; assay: surviving fraction relative to DMSO-only wells; higher = less growth inhibition; conditions: exposure time: 5 days
In short: (§1)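 Tumour cell lines in log phase were plated in 384-well plates at 250–500 cells per well, then, after 24 hours, exposed continuously for five days to inhibitors at 0.5, 1, 5, 10, 50, 100, 500 and 1000 nM. Viability came from CellTiter-Glo luminescence, and surviving fraction is that signal normalised to the median of DMSO-only wells. Plates were read after 10 minutes at room temperature, and each line, screened three times, was kept only when replicate Pearson r was >0.7 and median Z' was >0.3.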

[2] = compound: C[C@]12CC[C@H](O)CC1=CC[C@@H]1[C@@H]2CC[C@]2(C)C(c3cccnc3)=CC[C@@H]12 [ABIRATERONE]; assay: as above; conditions: exposure time: 5 days
In short: as §1

Row | Test System | surviving fraction ([1]; 0.5 nM) | surviving fraction ([1]; 1 nM) | surviving fraction ([1]; 5 nM) | surviving fraction ([1]; 10 nM) | surviving fraction ([1]; 50 nM) | surviving fraction ([1]; 100 nM) | surviving fraction ([1]; 500 nM) | surviving fraction ([1]; 1000 nM) | surviving fraction ([2]; 0.5 nM) | surviving fraction ([2]; 1 nM) | surviving fraction ([2]; 5 nM) | surviving fraction ([2]; 10 nM) | surviving fraction ([2]; 50 nM) | surviving fraction ([2]; 100 nM) | surviving fraction ([2]; 500 nM) | surviving fraction ([2]; 1000 nM)
1 | JURKAT HAEMATOPOIETIC AND LYMPHOID TISSUE | 1.08 ± 0.047 | 1.13 ± 0.017 | 1.09 ± 0.042 | 1.08 ± 0.041 | 1.06 ± 0.012 | 1.03 ± 0.022 | 1.06 ± 0.044 | 1.05 ± 0.032 | 1.09 ± 0.027 | 1.106 ± 0.0066 | 1.09 ± 0.022 | 1.07 ± 0.016 | 1.08 ± 0.018 | 1.03 ± 0.037 | 1.01 ± 0.022 | 0.995 ± 0.029
2 | KPD BONE | 0.967 ± 0.054 | 0.974 ± 0.034 | 1.08 ± 0.062 | 1.04 ± 0.032 | 1.01 ± 0.031 | 1.08 ± 0.019 | 1.04 ± 0.043 | 1.07 ± 0.059 | 0.966 ± 0.05 | 0.993 ± 0.054 | 1.02 ± 0.012 | 1.07 ± 0.043 | 1.07 ± 0.054 | 1.09 ± 0.041 | 1.01 ± 0.035 | 0.976 ± 0.054
3 | LM7 BONE | 1.03 ± 0.077 | 0.945 ± 0.024 | 1.01 ± 0.075 | 1.05 ± 0.062 | 0.889 ± 0.051 | 0.907 ± 0.049 | 0.803 ± 0.035 | 0.811 ± 0.12 | 0.954 ± 0.014 | 0.963 ± 0.097 | 1.07 ± 0.15 | 1.01 ± 0.026 | 1.05 ± 0.021 | 1.06 ± 0.094 | 0.97 ± 0.058 | 0.979 ± 0.038
4 | LNCAP PROSTATE | 1.12 ± 0.11 | 1.05 ± 0.11 | 1.06 ± 0.052 | 0.998 ± 0.087 | 1.22 ± 0.069 | 1.16 ± 0.1 | 1.23 ± 0.025 | 1.18 ± 0.039 | 0.875 ± 0.08 | 0.996 ± 0.24 | 0.92 ± 0.026 | 0.869 ± 0.11 | 0.93 ± 0.1 | 0.976 ± 0.15 | 0.84 ± 0.12 | 0.791 ± 0.14
5 | MCF7 BREAST | 0.925 ± 0.066 | 0.917 ± 0.043 | 0.945 ± 0.052 | 0.935 ± 0.036 | 0.941 ± 0.036 | 0.941 ± 0.068 | 0.941 ± 0.053 | 0.966 ± 0.017 | 0.961 ± 0.071 | 0.917 ± 0.059 | 0.902 ± 0.098 | 0.945 ± 0.027 | 1.01 ± 0.024 | 0.874 ± 0.039 | 1.05 ± 0.066 | 0.921 ± 0.017
6 | MDAMB134 BREAST | 0.907 ± 0.16 | 0.994 ± 0.19 | 0.752 ± 0.12 | 0.9 ± 0.011 | 0.913 ± 0.26 | 0.663 ± 0.12 | 0.724 ± 0.1 | 0.74 ± 0.0085 | 1.12 ± 0.043 | 0.896 ± 0.18 | 1.36 ± 0.096 | 0.943 ± 0.063 | 1.12 ± 0.049 | 1.15 ± 0.37 | 0.927 ± 0.13 | 0.965 ± 0.098
7 | MDAMB157 BREAST | 0.923 ± 0.041 | 1 ± 0.048 | 1.07 ± 0.12 | 1.04 ± 0.091 | 1.01 ± 0.03 | 0.971 ± 0.13 | 0.919 ± 0.053 | 0.936 ± 0.031 | 0.85 ± 0.017 | 0.892 ± 0.1 | 0.912 ± 0.081 | 1.12 ± 0.1 | 1.01 ± 0.092 | 1.09 ± 0.14 | 1.01 ± 0.1 | 0.957 ± 0.11
8 | MDAMB231 BREAST | 0.955 ± 0.013 | 0.974 ± 0.037 | 1.01 ± 0.022 | 0.984 ± 0.031 | 1 ± 0.046 | 1.02 ± 0.0072 | 1.08 ± 0.033 | 1.05 ± 0.024 | 0.991 ± 0.011 | 0.998 ± 0.048 | 1.02 ± 0.023 | 0.992 ± 0.031 | 1.02 ± 0.013 | 1.03 ± 0.024 | 1.02 ± 0.014 | 0.942 ± 0.027
9 | MDAMB361 BREAST | 0.708 ± 0.053 | 0.758 ± 0.065 | 0.76 ± 0.12 | 0.776 ± 0.026 | 0.577 ± 0.099 | 0.561 ± 0.073 | 0.626 ± 0.099 | 0.591 ± 0.066 | 0.881 ± 0.035 | 0.872 ± 0.096 | 0.82 ± 0.045 | 0.825 ± 0.076 | 1.53 ± 0.14 | 0.91 ± 0.04 | 0.837 ± 0.072 | 0.719 ± 0.07
10 | MDAMB436 BREAST | 0.976 ± 0.12 | 0.96 ± 0.057 | 0.932 ± 0.14 | 0.992 ± 0.13 | 0.943 ± 0.043 | 0.816 ± 0.052 | 0.955 ± 0.073 | 0.952 ± 0.056 | 0.954 ± 0.13 | 0.934 ± 0.063 | 0.915 ± 0.083 | 0.93 ± 0.061 | 1.02 ± 0.049 | 0.895 ± 0.052 | 0.953 ± 0.035 | 0.894 ± 0.037
11 | MDAMB453 BREAST | 0.996 ± 0.053 | 0.971 ± 0.081 | 1.01 ± 0.058 | 1 ± 0.076 | 0.915 ± 0.048 | 0.969 ± 0.1 | 0.951 ± 0.014 | 0.895 ± 0.05 | 1.05 ± 0.053 | 1.04 ± 0.13 | 1.15 ± 0.028 | 1.06 ± 0.072 | 1.09 ± 0.086 | 1.08 ± 0.0082 | 1.01 ± 0.029 | 1.006 ± 0.0072
12 | MDAMB468 BREAST | 0.911 ± 0.041 | 0.9443 ± 0.0091 | 1.02 ± 0.061 | 0.932 ± 0.019 | 0.964 ± 0.09 | 0.964 ± 0.077 | 0.947 ± 0.076 | 0.868 ± 0.053 | 0.965 ± 0.013 | 1.04 ± 0.034 | 0.997 ± 0.079 | 1.07 ± 0.052 | 1.18 ± 0.13 | 1.12 ± 0.053 | 1.05 ± 0.11 | 0.961 ± 0.09
13 | MFM223 BREAST | 1.12 ± 0.12 | 1.18 ± 0.094 | 1.07 ± 0.084 | 1.12 ± 0.076 | 0.849 ± 0.18 | 0.716 ± 0.081 | 0.719 ± 0.038 | 0.711 ± 0.035 | 1.19 ± 0.033 | 1.1 ± 0.08 | 1.17 ± 0.031 | 1.14 ± 0.099 | 1.22 ± 0.029 | 1.22 ± 0.015 | 1.2 ± 0.1 | 1.1 ± 0.1
14 | MG63 BONE | 1.02 ± 0.053 | 1.05 ± 0.047 | 1.06 ± 0.049 | 1.09 ± 0.027 | 1.07 ± 0.04 | 1.03 ± 0.065 | 1.02 ± 0.042 | 0.937 ± 0.029 | 1.09 ± 0.022 | 1.06 ± 0.038 | 1.11 ± 0.057 | 1.09 ± 0.042 | 1.09 ± 0.021 | 1.07 ± 0.045 | 1.05 ± 0.041 | 1.03 ± 0.017
15 | MHM BONE | 1.04 ± 0.022 | 1.04 ± 0.05 | 1.07 ± 0.032 | 1.04 ± 0.046 | 1.11 ± 0.016 | 1.089 ± 0.01 | 1.078 ± 0.0072 | 1.05 ± 0.032 | 1.03 ± 0.038 | 1.005 ± 0.0032 | 1.03 ± 0.027 | 1.05 ± 0.02 | 1.07 ± 0.024 | 1.05 ± 0.015 | 1.03 ± 0.018 | 1.05 ± 0.034
16 | NCIH441 LUNG | 1.03 ± 0.069 | 1.03 ± 0.043 | 1.16 ± 0.034 | 0.969 ± 0.072 | 1.02 ± 0.068 | 1 ± 0.022 | 1.07 ± 0.037 | 0.957 ± 0.083 | 1.04 ± 0.067 | 1.02 ± 0.12 | 1.08 ± 0.14 | 1.01 ± 0.077 | 1.1 ± 0.065 | 1.05 ± 0.11 | 1.01 ± 0.046 | 0.948 ± 0.051
